Measured values taken from US20100261711A1, “SELECTIVE ANTICONVULSANT AGENTS AND THEIR USES” (WiSys Technology Foundation, priority 2009, published 2010).
Values joined by “and” are separate entries in the source; they are usually repeats but may differ in a detail not shown here. Equal entries are not always repeated. “Also recorded” adds a separate entry of the source.

What was measured:
[1] = Toxicity (TOX), rotorod procedure, mice; format: in vivo; conditions: mouse, in vivo; Mice IP, rotorod; read-out: TD50 TOX
[2] = system: Metrazol-induced clonic seizures; test: Tolerance study, 5 day dosing, scMet; format: in vivo, Sprague Dawley rats
Procedure: The dose utilized was the predetermined ED50 against the scMet seizure model. In this model a subcutaneous injection of the convulsant Metrazol is used to produce highly reproducible clonic seizures in laboratory animals. […] Animals are pretreated with various doses of the test compound. At the time of peak effect (TPE) of the test compound, a dose of Metrazol that induce convulsions in 97% of animals (CD97: 85 mg/kg mice) is injected into a loose fold of skin in the midline of the neck. The animals are placed in isolation cages to minimize stress (Swinyard et al., 1961) and observed for the next 30 minutes for the presence or absence of a seizure. An episode of clonic spasms, approximately 3-5 seconds, of the fore and/or hindlimbs, jaws, or vibrissae is taken as the endpoint.
In this study, Sprague Dawley rats were used (average weight 150 gm). […] Finally, Group 3 was the solvent control group. These animals were administered the test solvent (methylcellulose 0.5%) as a control. Here methylcellulose was administered i.p. for all 5 days.
On day 5, all animals from each group were tested in the scMet model using the previously determined time of peak effect (TPE) of 15 minutes. Immediately after testing, blood was collected via cardiac puncture. Samples were spun down, plasma was collected and acetonitrile added. Samples were frozen at −80° C. and shipped to a commercial laboratory (Enthalpy) for analysis.

[3] = Plasma levels by LC-MS/MS (tolerance study); format: in vivo, Sprague Dawley rats; conditions: for Conc HZ-166 in plasma, individual subjects: 35.5 mg/kg
Procedure: Immediately after testing, blood was collected via cardiac puncture. Samples were spun down, plasma was collected and acetonitrile added. Samples were frozen at −80° C. and shipped to a commercial laboratory (Enthalpy) for analysis.
Group 3 (8 subjects) was dosed with vehicle only.

[4] = system: Pilocarpine-induced Status; test: Pilocarpine-induced status; format: in vivo, rats; conditions: for Pilocarpine-induced Status, Time to Peak Effect, ratio of animals: Time 0 Hrs

## C#Cc1ccc2c(c1)C(c1ccccn1)=NCc1c(C(=O)OCC)ncn1-2 [Hz166 (106), 8-Acetylenyl-6-pyridin-2-yl-4H-benzo[f]imidazo[1,5-a][1,4]diazepine-3-carboxylic acid ethyl ester]
[1]
  TD50: > 500 mg/kg
[2]; Group 1 chronic dosing, day 5
  protection against scMet induced seizures: approximately 40%
[2]; Group 1 chronic dosing: 35.5 mg/kg ip once daily 5 days, tested day 5 at TPE 15 min, 35.5 mg/kg
  scMet, animals protected/tested: 3/8 and 3/8 protected (chronic dosing)
[2]; Group 2 acute dosing: single 35.5 mg/kg ip dose on day 5, TPE 15 min, 35.5 mg/kg
  scMet, animals protected/tested: 1/8 and 1/8 (acute dosing)
[2]; original preliminary study (different rats), acutely treated group
  scMet, animals protected/tested: 5/8
[2]; original preliminary study (different rats), chronically treated group
  scMet, animals protected/tested: 5/8
[2]; rats, dosed 5 days at the calculated scMet ED50
  tolerance to the anticonvulsant effects: didn't develop tolerance; also recorded: did not develop tolerance
[3]; Group 1 (five days dosing)
  HZ-166, plasma average with outliers excluded: 0.334 nmol/mL
[3]; Group 1: HZ-166 35.5 mg/kg ip for five days, blood after test on day 5
  Conc HZ-166 in plasma, individual subjects: 94.3 ng/mL and 85.4 ng/mL and 168 ng/mL and 138 ng/mL and BLQ < (1.00) ng/mL and 118 ng/mL and 198 ng/mL and 30.5 ng/mL
[3]; Group 2 (day 5 only)
  HZ-166, plasma average with outliers excluded: 0.533 nmol/mL
[3]; Group 2: HZ-166 35.5 mg/kg ip on day 5 only
  Conc HZ-166 in plasma, individual subjects: 202 ng/mL and 165 ng/mL and 8.67 ng/mL and 273 ng/mL and 210 ng/mL and 93.3 ng/mL and 176 ng/mL

## C#Cc1ccc2c(c1)C(c1ccccc1)=N[C@H](C)c1nnc(C)n1-2 [SH-TR-CH3 (146), (4R)-8-Ethynyl-1,4-dimethyl-6-phenyl-4H-benzo[f][1,2,4]triazolo[4,3-a][1,4]diazepine]
[4]; Rats, 100 mg/kg, 0.25 Hr
  Pilocarpine-induced Status, Time to Peak Effect, ratio of animals: 0/2
[4]; Rats, 100 mg/kg, 0.5 Hr
  Pilocarpine-induced Status, Time to Peak Effect, ratio of animals: 0/2
[4]; Rats, 100 mg/kg, 1.0 Hr
  Pilocarpine-induced Status, Time to Peak Effect, ratio of animals: 0/2
[4]; Rats, 100 mg/kg, 2.0 Hr
  Pilocarpine-induced Status, Time to Peak Effect, ratio of animals: 0/2
[4]; Rats, 100 mg/kg, 4.0 Hr
  Pilocarpine-induced Status, Time to Peak Effect, ratio of animals: 0/2
[4]; Rats, 300 mg/kg, 0.25 Hr
  Pilocarpine-induced Status, Time to Peak Effect, ratio of animals: 0/2
[4]; Rats, 300 mg/kg, 0.5 Hr
  Pilocarpine-induced Status, Time to Peak Effect, ratio of animals: 0/2
[4]; Rats, 300 mg/kg, 1.0 Hr
  Pilocarpine-induced Status, Time to Peak Effect, ratio of animals: 0/2
[4]; Rats, 300 mg/kg, 2.0 Hr
  Pilocarpine-induced Status, Time to Peak Effect, ratio of animals: 0/2
[4]; Rats, 300 mg/kg, 4.0 Hr
  Pilocarpine-induced Status, Time to Peak Effect, ratio of animals: 0/2
[4]; Rats, 500 mg/kg, 0.25 Hr, Ataxia noted
  Pilocarpine-induced Status, Time to Peak Effect, ratio of animals: 0/2^12
[4]; Rats, 500 mg/kg, 0.5 Hr, Ataxia noted
  Pilocarpine-induced Status, Time to Peak Effect, ratio of animals: 0/2^12
[4]; Rats, 500 mg/kg, 1.0 Hr, Ataxia noted
  Pilocarpine-induced Status, Time to Peak Effect, ratio of animals: 0/2^12
[4]; Rats, 500 mg/kg, 2.0 Hr, Ataxia noted
  Pilocarpine-induced Status, Time to Peak Effect, ratio of animals: 0/2^12
[4]; Rats, 500 mg/kg, 4.0 Hr
  Pilocarpine-induced Status, Time to Peak Effect, ratio of animals: 0/2
[4]; Rats, 600 mg/kg, 0 Hrs post first Stage III seizure
  Pilocarpine-induced Status, ratio of animals: 4/7
[4]; Rats, 1,000 mg/kg, 0.5 Hrs post first Stage III seizure, footnote c: death
  Pilocarpine-induced Status, ratio of animals: 1/7^c

## C#Cc1ccc2c(c1)C(c1ccccc1F)=NCc1c(C(=O)OCC)ncn1-2 [JY-XHe-053 (15), Ethyl-8-acetyleno-6-(2′-fluorophenyl)-4H-benzo[f]imidazo[1,5-a][1,4]diazepine-3-carboxylate]
[1]
  TD50: > 400 mg/kg
